Experimental data from patent US6967215B2, “Tetrahydrocarbazoles, a process for the preparation of those compounds, and the use thereof” (Ciba Specialty Chemicals Corporation, priority 2000, dated 2005).

Columns and labels:
[1] = system: Escherichia coli NCTC 8196; assay: MIC, microtitre dilution test (growth by optical density at 620 nm); type: cell-based; settings: Table 2; Escherichia coli
Protocol: (§1) Casein/soybean flour peptone bouillon for the preparation of pre-cultures of the test bacteria and yeast.
(§2) The test substances are predissolved in dimethyl sulfoxide (DMSO) and tested in a dilution series of 1:2.
(§3) Bacteria and yeast are cultured overnight in CASO bouillon, the mould is cultured overnight on mycological slant agar, and washed off with 10 ml of 0.85% sodium chloride solution (+0.1% TritonX-100).
(§4) All the test organisms are adjusted to an organism count of 1-5×10^6 CFU/ml using 0.85% sodium chloride solution.
(§5) The test substances are pre-pipetted into microtitre plates in an amount of 8 μl per well.
(§6) Pre-diluted organism suspensions are diluted 1:100 in CASO bouillon (bacteria and yeast) or Sabouraud 2% glucose bouillon (mould) and are added in an amount of 192 μl per well to the test substances.
(§7) The test batches are incubated for 48 hours at 37° C. (bacteria and yeast) or for 5 days at 28° C. (mould).
(§8) After incubation, the growth is evaluated by reference to the turbidity of the test batches (optical density) at 620 nm in a microplate reader.
(§9) The minimum inhibitory concentration (MIC value) is the concentration of substance at which (compared with the growth of the control) an appreciable inhibition of growth (≦20% growth) of the test organisms is ascertained.
(§10) One microtitre plate is used for each test organism and substance concentration. All the substances are tested in duplicate.

[2] = system: Staphylococcus hominis DMS 20328; assay: as above; type: cell-based; settings: Table 2; Staphylococcus hominis DMS 20328
Protocol: as §1, §2, §3, §4, §5, §6, §7, §8, §9, §10

Row | MIC [ppm] E. coli [1] | MIC [ppm] S. hominis [2] | SMILES
1 | >120 ppm | >120 ppm | COc1ccc2[nH]c3c(c2c1)C1CCCCC1C1C(=O)NC(=O)C31 (stereo not drawn) [Compound 91]
2 | >120 ppm | 60 ppm | CCc1cccc2c3c([nH]c12)C1C(=O)NC(=O)C1C1CCCCC31 (stereo not drawn) [Compound 74]
3 | >120 ppm | 120 ppm | CCc1cccc2c3c([nH]c12)C1C(=O)N(C)C(=O)C1C1CCCCCCC31 (stereo not drawn) [Compound 162]
4 | >120 ppm | 60 ppm | CCC(C)(C)C1CCC2c3c([nH]c4ccc(OC)cc34)C3C(=O)NC(=O)C3C2C1 (stereo not drawn) [Compound 102]
5 | >120 ppm | 7.5 ppm | CCc1cccc2c3c([nH]c12)C1C(=O)NC(=O)C1C1CCCCCCC31 (stereo not drawn) [Compound 89]
6 | >120 ppm | >120 ppm | CC(C)N1CCC2c3c([nH]c4ccccc34)C3C(=O)NC(=O)C3C2C1 (stereo not drawn) [Compound 55]
7 | >120 ppm | >120 ppm | COc1ccc2[nH]c3c(c2c1)C1CCCC1C1C(=O)NC(=O)C31 (stereo not drawn) [Compound 92]
8 | >120 ppm | 30 ppm | CC1CCC2C(C1)c1c([nH]c3ccccc13)C1C(=O)NC(=O)C12 (stereo not drawn) [Compound 56]
9 | >120 ppm | 60 ppm | O=C1NC(=O)C2C1c1[nH]c3ccc(Br)cc3c1C1CCCCCCC12 (stereo not drawn) [Compound 73]
10 | >120 ppm | >120 ppm | CCN1CCC2c3c([nH]c4ccc(OC)cc34)C3C(=O)NC(=O)C3C2C1 (stereo not drawn) [Compound 103]
11 | >120 ppm | >120 ppm | CCc1cccc2c3c([nH]c12)C1C(=O)NC(=O)C1C1C3CC(C)(C)CC1(C)C (stereo not drawn) [Compound 90]
12 | >120 ppm | >120 ppm | CCOC(=O)N1CCC2c3c([nH]c4ccc(Br)cc34)C3C(=O)NC(=O)C3C2C1 (stereo not drawn) [Compound 68]
13 | >120 ppm | 3.75 ppm | O=C1NC(=O)C2C1c1[nH]c3ccc(Br)cc3c1C1CCCCCC12 (stereo not drawn) [Compound 32]
14 | >120 ppm | >120 ppm | COc1ccc2[nH]c3c(c2c1)C1CCN(Cc2ccccc2)CC1C1C(=O)NC(=O)C31 (stereo not drawn) [Compound 104]
15 | >120 ppm | 15 ppm | CC(C)(C)C1CCC2c3c([nH]c4ccc(Br)cc34)C3C(=O)NC(=O)C3C2C1 (stereo not drawn) [Compound 31]
16 | >120 ppm | 120 ppm | O=C1NC(=O)C2C1c1[nH]c3ccccc3c1C1CCN(Cc3ccccc3)CC12 (stereo not drawn) [Compound 60]
17 | >120 ppm | >120 ppm | CCCC1CCC2c3c([nH]c4ccc(OC)cc34)C3C(=O)NC(=O)C3C2C1 (stereo not drawn) [Compound 101]
18 | >120 ppm | >120 ppm | CCOC(=O)N1CCC2c3c([nH]c4ccccc34)C3C(=O)NC(=O)C3C2C1 (stereo not drawn) [Compound 54]
19 | >120 ppm | >120 ppm | COc1ccc2[nH]c3c(c2c1)C1CCN(C)CC1C1C(=O)NC(=O)C31 (stereo not drawn) [Compound 105]
20 | >120 ppm | 30 ppm | CCc1cccc2c3c([nH]c12)C1C(=O)NC(=O)C1C1CCCC31 (stereo not drawn) [Compound 75]
21 | >120 ppm | >120 ppm | COc1ccc2[nH]c3c(c2c1)C1CCCCCC1C1C(=O)NC(=O)C31 (stereo not drawn) [Compound 94]
22 | >120 ppm | >120 ppm | CCCCCCC1CCC2C3C(=O)NC(=O)C3c3[nH]c4ccccc4c3C12 (stereo not drawn) [Compound 57]
23 | >120 ppm | >120 ppm | CCCCCCC1CCC2C3C(=O)NC(=O)C3c3[nH]c4c(CC)cccc4c3C12 (stereo not drawn) [Compound 83]
24 | 60 ppm | 30 ppm | CCCN1CCC2c3c([nH]c4ccc(Br)cc34)C3C(=O)NC(=O)C3C2C1 (stereo not drawn) [Compound 33]
25 | >120 ppm | >120 ppm | CN1C(=O)C2c3[nH]c4ccccc4c3C3CCCCCCC3C2C1=O (stereo not drawn) [Compound 125]
26 | >120 ppm | >120 ppm | COc1ccc2[nH]c3c(c2c1)C1CCCCC1C1C(=O)N(C)C(=O)C31 (stereo not drawn) [Compound 164]

The next lines start with the compound.

Row | SMILES | MIC [ppm] E. coli [1] | MIC [ppm] S. hominis [2]
27 | CCOC(=O)N1CCC2c3c([nH]c4ccccc34)C3C(=O)N(c4ccccc4)C(=O)C3C2C1 (stereo not drawn) [Compound 52] | >120 ppm | >120 ppm
28 | CCC(C)(C)C1CCC2c3c([nH]c4ccccc34)C3C(=O)N(C)C(=O)C3C2C1 (stereo not drawn) [Compound 120] | >120 ppm | 30 ppm
29 | COc1ccc2[nH]c3c(c2c1)C1CCC(C(C)(C)C)CC1C1C(=O)N(C)C(=O)C31 (stereo not drawn) [Compound 166] | >120 ppm | >120 ppm
30 | CCCN1CCC2c3c([nH]c4ccccc34)C3C(=O)N(c4ccccc4)C(=O)C3C2C1 (stereo not drawn) [Compound 15] | >120 ppm | >120 ppm
31 | CN1C(=O)C2c3[nH]c4ccccc4c3C3CCC(C(C)(C)C)CC3C2C1=O (stereo not drawn) [Compound 111] | >120 ppm | 60 ppm
32 | CC1(C)CC2c3c([nH]c4ccccc34)C3C(=O)NC(=O)C3C2C(C)(C)C1 (stereo not drawn) [Compound 63] | >120 ppm | 7.5 ppm
33 | COc1ccc2[nH]c3c(c2c1)C1CCCCCCC1C1C(=O)N(C)C(=O)C31 (stereo not drawn) [Compound 180] | >120 ppm | >120 ppm
34 | CCOC(=O)N1CCC2c3c([nH]c4ccccc34)C3C(=O)N(C)C(=O)C3C2C1 (stereo not drawn) [Compound 115] | >120 ppm | 60 ppm
35 | CCOC(=O)N1CCC2c3c([nH]c4ccc(OC)cc34)C3C(=O)N(C)C(=O)C3C2C1 (stereo not drawn) [Compound 170] | >120 ppm | >120 ppm
36 | COc1ccc2[nH]c3c(c2c1)C1CC(C)CCC1C1C(=O)N(C)C(=O)C31 (stereo not drawn) [Compound 172] | >120 ppm | >120 ppm
37 | CCCN1CCC2c3c([nH]c4ccccc34)C3C(=O)N(CC)C(=O)C3C2C1 (stereo not drawn) [Compound 41] | >120 ppm | >120 ppm
38 | CCC(C)(C)C1CCC2c3c([nH]c4ccc(OC)cc34)C3C(=O)N(C)C(=O)C3C2C1 (stereo not drawn) [Compound 175] | >120 ppm | >120 ppm
39 | CCCC1CCC2c3c([nH]c4ccccc34)C3C(=O)N(C)C(=O)C3C2C1 (stereo not drawn) [Compound 119] | >120 ppm | >120 ppm
40 | COc1ccc2[nH]c3c(c2c1)C1CCN(C(C)C)CC1C1C(=O)N(C)C(=O)C31 (stereo not drawn) [Compound 171] | >120 ppm | >120 ppm
41 | CCN1C(=O)C2c3[nH]c4ccccc4c3C3CCC(C(C)(C)C)CC3C2C1=O (stereo not drawn) [Compound 39] | >120 ppm | >120 ppm
42 | CCN1CCC2c3c([nH]c4ccccc34)C3C(=O)N(C)C(=O)C3C2C1 (stereo not drawn) [Compound 121] | >120 ppm | >120 ppm
43 | CN1C(=O)C2c3[nH]c4ccccc4c3C3CC(C)(C)NC(C)(C)C3C2C1=O (stereo not drawn) [Compound 113] | >120 ppm | >120 ppm
44 | CN1C(=O)C2c3[nH]c4ccc(Br)cc4c3C3CCC(C(C)(C)C)CC3C2C1=O (stereo not drawn) [Compound 129] | >120 ppm | >120 ppm
45 | CC1(C)CC2c3c([nH]c4ccccc34)C3C(=O)NC(=O)C3C2C(C)(C)N1 (stereo not drawn) [Compound 28] | >120 ppm | >120 ppm
46 | COc1ccc2[nH]c3c(c2c1)C1CC(C)(C)CC(C)(C)C1C1C(=O)NC(=O)C31 (stereo not drawn) [Compound 108] | >120 ppm | >120 ppm
47 | COc1ccc2[nH]c3c(c2c1)C1CCCCCC1C1C(=O)N(C)C(=O)C31 (stereo not drawn) [Compound 167] | >120 ppm | >120 ppm
48 | CCCN1CCC2c3c([nH]c4ccccc34)C3C(=O)N(C)C(=O)C3C2C1 (stereo not drawn) [Compound 114] | >120 ppm | >120 ppm
49 | CC(C)N1CCC2c3c([nH]c4ccccc34)C3C(=O)N(C)C(=O)C3C2C1 (stereo not drawn) [Compound 116] | >120 ppm | 120 ppm
50 | Cn1c2c(c3ccccc31)C1CCC(C(C)(C)C)CC1C1C(=O)N(c3ccccc3)C(=O)C21 (stereo not drawn) [Compound 22] | >120 ppm | >120 ppm
51 | CCN1C(=O)C2c3[nH]c4ccc(Br)cc4c3C3CCC(C(C)(C)C)CC3C2C1=O (stereo not drawn) [Compound 44] | >120 ppm | >120 ppm
52 | CCCN1CCC2c3c([nH]c4ccc(Br)cc34)C3C(=O)N(CC)C(=O)C3C2C1 (stereo not drawn) [Compound 46] | 120 ppm | 120 ppm
53 | CN1C(=O)C2c3[nH]c4ccccc4c3C3CCN(Cc4ccccc4)CC3C2C1=O (stereo not drawn) [Compound 122] | >120 ppm | >120 ppm
54 | CCN1CCC2c3c([nH]c4ccc(OC)cc34)C3C(=O)N(C)C(=O)C3C2C1 (stereo not drawn) [Compound 176] | >120 ppm | >120 ppm
